The record followed here is PubChem BioAssay AID316 (DTP/NCI, 2004).

In this assay the test system is P1534 leukemia ip, CD2F1 mice, survival T/C. Nature of the assay: NCI In Vivo Anticancer Drug Screen. Data for tumor model P1534 Leukemia (intraperitoneal) in CD2F1 (CDF1) mice. Conditions: higher = longer survival. The method, then: The antitumor activity of compounds was measured in mice bearing transplantable tumors. Survival or tumor size were measured and the results are expressed as the measurement made in the treated group (T) divided by the measurement made in the vehicle treated control group (C). The tumor model used in this assay is P1534 Leukemia (intraperitoneal) in CD2F1 (CDF1) mice

Where [1] appears, read: endpoint: mean survival time, dose: 25.0 mg/kg/injection, schedule: Q01DX010 (ip), vehicle: saline.
The mark [2] stands for this setting: endpoint: mean survival time, dose: 50.0 mg/kg/injection, schedule: Q01DX010 (ip), vehicle: saline.
Setting [3] is: endpoint: mean survival time, dose: 100.0 mg/kg/injection, schedule: Q01DX010 (ip), vehicle: saline.
Where [4] appears, read: endpoint: mean survival time, dose: 200.0 mg/kg/injection, schedule: Q01DX010 (ip), vehicle: saline.
Where [5] appears, read: endpoint: mean survival time, dose: 7.5 mg/kg/injection, schedule: Q01DX010 (ip), vehicle: saline.
Setting [6] is: endpoint: mean survival time, dose: 15.0 mg/kg/injection, schedule: Q01DX010 (ip), vehicle: saline.
The mark [7] stands for this setting: endpoint: mean survival time, dose: 30.0 mg/kg/injection, schedule: Q01DX010 (ip), vehicle: saline.
Where [8] appears, read: endpoint: mean survival time, dose: 8.0 mg/kg/injection, schedule: Q01DX010 (ip), vehicle: saline.
The mark [9] stands for this setting: endpoint: mean survival time, dose: 6.25 mg/kg/injection, schedule: Q01DX010 (ip), vehicle: saline.
The mark [10] stands for this setting: endpoint: mean survival time, dose: 12.5 mg/kg/injection, schedule: Q01DX010 (ip), vehicle: saline.
The mark [11] stands for this setting: endpoint: mean survival time, dose: 400.0 mg/kg/injection, schedule: Q01DX010 (ip), vehicle: saline.
Where [12] appears, read: endpoint: mean survival time, dose: 1.0 mg/kg/injection, schedule: Q01DX010 (ip), vehicle: saline.

“And” between values parts separate entries of the source, which are not always exact repeats. Equal values may be shown once. Toxic doses and inconclusive results are not listed.

Consider `CC[C@@H](c1ccc(O)cc1)[C@@H](CC)c1ccc(O)cc1`, for which the T/C runs as follows: (endpoint: mean survival time, dose: 25.0 mg/kg/injection, schedule: Q01DX010 (sc), vehicle: water) 100 % of control; (endpoint: mean survival time, dose: 50.0 mg/kg/injection, schedule: Q01DX010 (sc), vehicle: water) 92 % of control; (endpoint: mean survival time, dose: 100.0 mg/kg/injection, schedule: Q01DX010 (sc), vehicle: water) 92 % of control; (endpoint: mean survival time, dose: 200.0 mg/kg/injection, schedule: Q01DX010 (sc), vehicle: water) 92 % of control.

As for `O=c1[nH]cnc2ccccc12`, the T/C under setting [1] is 107 % of control, the T/C under setting [2] was 100 % of control, the T/C under setting [3] was 103 % of control and the T/C under setting [4] is 114 % of control.

As to `CN(C)[C@@H]1C(=O)C(C(N)=O)=C(O)[C@@]2(O)C(=O)C3=C(O)c4c(O)cccc4C[C@H]3C[C@@H]12`, the T/C was 107 % of control (endpoint: mean survival time, dose: 3.75 mg/kg/injection, schedule: Q01DX010 (ip), vehicle: saline); 107 % of control under setting [5]; 100 % of control under setting [6]; 103 % of control and 100 % of control under setting [7].

Regarding `Nc1nc(N)c2nc(CNc3ccc(C(=O)NC(CCC(=O)O)C(=O)O)cc3)cnc2n1` (stereo unspecified), the T/C runs as follows: (endpoint: mean survival time, dose: 25.0 micrograms/kg/injection, schedule: Q01DX010 (ip), vehicle: other) 109 % of control; (endpoint: mean survival time, dose: 50.0 micrograms/kg/injection, schedule: Q01DX010 (ip), vehicle: other) 113 % of control and 122 % of control; (endpoint: mean survival time, dose: 100.0 micrograms/kg/injection, schedule: Q01DX010 (ip), vehicle: other) 159 % of control; (endpoint: mean survival time, dose: 200.0 micrograms/kg/injection, schedule: Q01DX010 (ip), vehicle: other) 95 % of control and 100 % of control; (endpoint: median survival time, dose: 0.05 mg/kg/injection, schedule: Q01DX009 (ip), vehicle: sodium bicarbonate) 164 % of control; (endpoint: median survival time, dose: 0.1 mg/kg/injection, schedule: Q01DX009 (ip), vehicle: sodium bicarbonate) 93 % of control.

Regarding `CCC1=CC2CN3CCc4c([nH]c5ccccc45)C(C(=O)OC)(C2)C13` (stereo unspecified), the T/C by setting is: (endpoint: mean survival time, dose: 2.5 mg/kg/injection, schedule: Q01DX010 (ip), vehicle: saline) 117 % of control; (endpoint: mean survival time, dose: 5.0 mg/kg/injection, schedule: Q01DX010 (ip), vehicle: saline) 103 % of control; (endpoint: mean survival time, dose: 10.0 mg/kg/injection, schedule: Q01DX010 (ip), vehicle: saline) 100 % of control; (endpoint: mean survival time, dose: 20.0 mg/kg/injection, schedule: Q01DX010 (ip), vehicle: saline) 92 % of control.

For `C[C@H]1/C(=C/C(=O)OCCN(C)C)CC[C@H]2[C@H]1C(=O)C[C@H]1C(C)(C)[C@@H](O)CC[C@]21C`, the T/C was 96 % of control (endpoint: mean survival time, dose: 4.0 mg/kg/injection, schedule: Q01DX010 (ip), vehicle: saline) and 113 % of control under setting [8].

With `O=P1(N(CCCl)CCCl)NCCCO1` (stereo unspecified), the T/C by setting is: (endpoint: mean survival time, dose: 2.9 mg/kg/injection, schedule: Q01DX010 (ip), vehicle: saline) 98 % of control; (endpoint: mean survival time, dose: 5.7 mg/kg/injection, schedule: Q01DX010 (ip), vehicle: saline) 106 % of control; (endpoint: mean survival time, dose: 11.3 mg/kg/injection, schedule: Q01DX010 (ip), vehicle: saline) 111 % of control.

With `COc1ccc(/C=N/NC(N)=S)cc1`, the T/C by setting is: (endpoint: mean survival time, dose: 32.0 mg/kg/injection, schedule: Q01DX010 (ip), vehicle: saline) 100 % of control; (endpoint: mean survival time, dose: 64.0 mg/kg/injection, schedule: Q01DX010 (ip), vehicle: saline) 100 % of control; (endpoint: mean survival time, dose: 128.0 mg/kg/injection, schedule: Q01DX010 (ip), vehicle: saline) 100 % of control; (endpoint: mean survival time, dose: 256.0 mg/kg/injection, schedule: Q01DX010 (ip), vehicle: saline) 106 % of control.

On to `COc1cc2c(cc1Oc1c(Oc3c(O)c(OC)cc4c3C(CC(C)C)N(C)CC4)c(OC)cc3c1C(CC(C)C)N(C)CC3)C(CC(C)C)N(C)CC2` (stereo unspecified), for which the T/C reads like this: under setting [1], 107 % of control; under setting [2], 115 % of control; under setting [3], 111 % of control.

In the case of `O=C(NCCCCC(NC(=O)c1ccccc1)C(=O)NCCCCCCCCCCNC(=O)C(CCCCNC(=O)c1ccccc1)NC(=O)c1ccccc1)c1ccccc1` (stereo unspecified), the T/C was 103 % of control under setting [9], 103 % of control under setting [10], 100 % of control under setting [1] and 96 % of control under setting [2].

Take `CC(C)=CCC1=C(O)c2ccccc2C(=O)C1=O`: the T/C (endpoint: mean survival time, dose: 200.0 mg/kg/injection, schedule: Q01DX010 (oral), vehicle: other) is 102 % of control; the T/C (endpoint: mean survival time, dose: 300.0 mg/kg/injection, schedule: Q01DX010 (oral), vehicle: other) was 115 % of control; the T/C (endpoint: mean survival time, dose: 400.0 mg/kg/injection, schedule: Q01DX010 (oral), vehicle: other) was 112 % of control; the T/C (endpoint: mean survival time, dose: 600.0 mg/kg/injection, schedule: Q01DX010 (oral), vehicle: other) is 103 % of control.

For the compound `O=NN(CCCl)C(=O)NCCCl`, the T/C by setting is: under setting [9], 265 % of control and 290 % of control; under setting [10], 150 % of control and 170 % of control.

Regarding `CS(=O)(=O)OCCCCOS(C)(=O)=O`, the T/C by setting is: under setting [9], 106 % of control and 88 % of control; under setting [10], 88 % of control and 100 % of control; under setting [1], 112 % of control and 88 % of control; under setting [2], 112 % of control and 100 % of control.

For the compound `CS(=O)(=O)OCC(O)C(O)C(O)C(O)COS(C)(=O)=O` (stereo unspecified), the T/C was 107 % of control under setting [1]; 103 % of control and 100 % of control under setting [2]; 107 % of control under setting [3]; 107 % of control and 121 % of control under setting [4].

For the compound `CC1CCCCN1` (stereo unspecified), the T/C reads like this: under setting [9], 103 % of control; under setting [10], 103 % of control; under setting [1], 103 % of control; under setting [2], 96 % of control.

`Nc1nc(=S)c2ncn(C3OC(CO)C(O)C3O)c2[nH]1` (stereo unspecified): the T/C was 103 % of control (endpoint: mean survival time, dose: 0.31 mg/kg/injection, schedule: Q01DX010 (ip), vehicle: saline); 103 % of control (endpoint: mean survival time, dose: 0.63 mg/kg/injection, schedule: Q01DX010 (ip), vehicle: saline); 106 % of control (endpoint: mean survival time, dose: 1.25 mg/kg/injection, schedule: Q01DX010 (ip), vehicle: saline).

As for `CN(C)c1ccc(C(N)=O)cn1`, the T/C was 115 % of control (endpoint: mean survival time, dose: 1.5 mg/kg/injection, schedule: Q01DX010 (ip), vehicle: saline) and 123 % of control (endpoint: mean survival time, dose: 3.0 mg/kg/injection, schedule: Q01DX010 (ip), vehicle: saline).

As for `O=CN(O)CC(=O)O`, the T/C was 100 % of control (endpoint: mean survival time, dose: 15.6 mg/kg/injection, schedule: Q01DX010 (ip), vehicle: saline); 100 % of control (endpoint: mean survival time, dose: 31.3 mg/kg/injection, schedule: Q01DX010 (ip), vehicle: saline); 100 % of control (endpoint: mean survival time, dose: 62.5 mg/kg/injection, schedule: Q01DX010 (ip), vehicle: saline); 103 % of control (endpoint: mean survival time, dose: 125.0 mg/kg/injection, schedule: Q01DX010 (ip), vehicle: saline).

For `O=C(NCCCC(NC(=O)OCc1ccccc1)C(=O)NCCCCCCNCCCCCCNC(=O)C(CCCNC(=O)OCc1ccccc1)NC(=O)OCc1ccccc1)OCc1ccccc1` (stereo unspecified), the T/C runs as follows: under setting [10], 100 % of control; under setting [1], 100 % of control; under setting [3], 100 % of control.

`CC(=O)NCCCCCCNC(C)=O`: the T/C runs as follows: under setting [2], 93 % of control; under setting [3], 96 % of control; under setting [4], 96 % of control; under setting [11], 100 % of control.

For `O=C(Nc1ccc(C2=NCCCN2)cc1)c1ccc(C(=O)Nc2ccc(C3=NCCCN3)cc2)cc1`, the T/C reads like this: under setting [12], 109 % of control; (endpoint: mean survival time, dose: 2.0 mg/kg/injection, schedule: Q01DX010 (ip), vehicle: saline) 113 % of control and 118 % of control; under setting [8], 150 % of control.

With `Clc1ncnc2nc[nH]c12`, the T/C was 106 % of control and 100 % of control under setting [5]; 94 % of control under setting [6]; 105 % of control under setting [7]; 105 % of control (endpoint: mean survival time, dose: 60.0 mg/kg/injection, schedule: Q01DX010 (ip), vehicle: saline).

On to `C=C1c2[nH]c3ccccc3c2CN2CCC1/C(=C/C)C2` (stereo unspecified), for which the T/C (endpoint: mean survival time, dose: 0.13 mg/kg/injection, schedule: Q01DX010 (ip), vehicle: saline) was 96 % of control; the T/C (endpoint: mean survival time, dose: 0.25 mg/kg/injection, schedule: Q01DX010 (ip), vehicle: saline) is 93 % of control; the T/C (endpoint: mean survival time, dose: 0.5 mg/kg/injection, schedule: Q01DX010 (ip), vehicle: saline) is 96 % of control; the T/C under setting [12] was 100 % of control.

Consider `CN(C)CC(=O)NCCCCCCCCCCNC(=O)CN(C)C`, for which the T/C reads like this: under setting [3], 100 % of control; under setting [4], 100 % of control; under setting [11], 107 % of control.
